Laboratory results from patent US20190105367A1, “ANTIMICROBIAL 4-OXOQUINOLIZINES” (Emergent Product Development Gaithersburg Inc., priority 2011, published 2019).
Converted amounts (≈) assume the structure as drawn. Like-named read-outs stand apart in the source and are kept apart here.

Legend:
[1] = system: Acinetobacter sp. (H064200250); assay: MIC without and with sub-inhibitory polymyxin B (Example 4); format: cell-based; settings: for MIC: Acinetobacter
[2] = system: A. baumannii A14; assay: Preliminary MBC without and with sub-inhibitory polymyxin B (Example 4); format: cell-based, Acinetobacter baumannii; settings: A. baumannii A14, +0.06 μg/ml PB, 2nd experiment
Procedure, shortened: (§1)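 After plating, cultures are held at 37° C for 18-20 hours; the endpoint is then scored by comparing colony growth against the positive control, with MBC defined as the lowest concentration showing roughly 90% reduction.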

[3] = system: A. baumannii A390; assay: as above; format: cell-based, Acinetobacter baumannii; settings: Acinetobacter baumannii, A390, A. baumannii A390, +0.06 μg/ml PB, 2nd experiment, read-out: MBC
Procedure, shortened: as §1

[4] = system: A. baumannii A473; assay: as above; format: cell-based, Acinetobacter baumannii; settings: Acinetobacter baumannii, A473, A. baumannii A473, +0.06 μg/ml PB, 2nd experiment, read-out: MBC
Procedure, shortened: as §1

[5] = system: A. baumannii NCTC 13301; assay: as above; format: cell-based, Acinetobacter baumannii; settings: Acinetobacter baumannii
Procedure, shortened: as §1

[6] = system: A. baumannii J2; assay: MIC without and with sub-inhibitory polymyxin B (Example 4); format: cell-based, Acinetobacter baumannii; settings: for MIC without PB/MIC + PB: A. baumannii J2; for MIC: Acinetobacter baumannii
[7] = system: A. baumannii A473; assay: as above; format: cell-based, Acinetobacter baumannii; settings: A. baumannii A473; +0.06 μg/ml PB; 2nd experiment
[8] = system: A. baumannii A329; assay: as above; format: cell-based, Acinetobacter baumannii; settings: A. baumannii A329; +0.06 μg/ml PB; 2nd experiment
[9] = system: A. baumannii ATCC 19606; assay: as above; format: cell-based, Acinetobacter baumannii; settings: A. baumannii ATCC 19606
[10] = system: A. baumannii A14; assay: as above; format: cell-based, Acinetobacter baumannii; settings: 1st experiment
[11] = system: strains of A. baumannii and one strain of Acinetobacter sp.; assay: MIC with sub-inhibitory concentrations (0.25x MIC) of polymyxin B, panel of Acinetobacter strains (Example 4); format: cell-based
[12] = system: A. baumannii NCTC 13301; assay: MIC without and with sub-inhibitory polymyxin B (Example 4); format: cell-based, Acinetobacter baumannii; settings: +[…] PB, 2nd experiment
[13] = system: A. baumannii J2; assay: Preliminary MBC without and with sub-inhibitory polymyxin B (Example 4); format: cell-based, Acinetobacter baumannii; settings: Acinetobacter baumannii, preliminary MBC
[14] = system: A. baumannii A14; assay: MIC without and with sub-inhibitory polymyxin B (Example 4); format: cell-based, Acinetobacter baumannii; settings: 2nd experiment
[15] = system: A. baumannii A472; assay: Preliminary MBC without and with sub-inhibitory polymyxin B (Example 4); format: cell-based, Acinetobacter baumannii; settings: Acinetobacter baumannii, preliminary MBC
[16] = system: A. baumannii A489; assay: MIC without and with sub-inhibitory polymyxin B (Example 4); format: cell-based, Acinetobacter baumannii; settings: for MIC without PB/MIC + PB: A. baumannii A489; for MIC: Acinetobacter baumannii
[17] = system: Acinetobacter sp. (H064200250); assay: Preliminary MBC without and with sub-inhibitory polymyxin B (Example 4); format: cell-based; settings: Acinetobacter, preliminary MBC
Procedure, shortened: as §1

[18] = system: A. baumannii A390; assay: MIC without and with sub-inhibitory polymyxin B (Example 4); format: cell-based, Acinetobacter baumannii; settings: +0.06 μg/ml PB, 2nd experiment
[19] = system: A. baumannii A329; assay: Preliminary MBC without and with sub-inhibitory polymyxin B (Example 4); format: cell-based, Acinetobacter baumannii; settings: Acinetobacter baumannii, A329, A. baumannii A329, +0.06 μg/ml PB, 2nd experiment, read-out: MBC
[20] = system: A. baumannii A489; assay: as above; format: cell-based, Acinetobacter baumannii; settings: Acinetobacter baumannii, preliminary MBC
[21] = system: A. baumannii NCTC 13301; assay: MIC without and with sub-inhibitory polymyxin B (Example 4); format: cell-based, Acinetobacter baumannii
[22] = system: A. baumannii A387; assay: as above; format: cell-based, Acinetobacter baumannii; settings: for MIC without PB/MIC + PB: A. baumannii A387; for MIC: Acinetobacter baumannii
[23] = system: A. baumannii A14; assay: Preliminary MBC without and with sub-inhibitory polymyxin B (Example 4); format: cell-based, Acinetobacter baumannii; settings: A. baumannii A14; +0.06 μg/ml polymyxin B; preliminary MBC; 1st experiment
[24] = ratio, PB 0.06 μg/ml, 1st experiment
[25] = A. baumannii A14, +0.06 μg/ml PB

SMILES: Cc1c(-c2cc(F)c(N)cc2F)ccn2c(=O)c(C(=O)O)cc(C3CC3)c12 [Compound 2, 8-(4-amino-2,5-difluorophenyl)-1-cyclopropyl-9-methyl-4-oxo-4H-quinolizine-3-carboxylic acid]
- MIC without PB/MIC + PB ([1]; Acinetobacter spp. H064200250 (OXA51), +[…] PB, 2nd experiment): ≥128
- MIC without PB/MIC + PB ([1]; Acinetobacter spp. H064200250, ratio, PB […], 1st experiment): ≥128
- MIC ([1]; Acinetobacter spp. H064200250 (OXA51), +[…] PB, 2nd experiment, read-out: MIC): ≤ 0.03 µg/mL
- MIC ([1]; read-out: MIC +[…] PB, Acinetobacter spp. H064200250, +[…] polymyxin B, 1st experiment): ≤ 0.03 µg/mL
- MBC [2]: 0.06 µg/mL (≈ 0.162 µM)
- MBC [3]: 0.06 µg/mL (≈ 0.162 µM)
- MBC [4]: 0.125 µg/mL (≈ 0.338 µM)
- MBC ([5]; NCTC13301, A. baumannii NCTC 13301, +[…] PB, preliminary MBC, 2nd experiment, read-out: MBC): ≤ 0.03 µg/mL
- MBC ([5]; NCTC13301, read-out: MBC +[…] PB): ≤ 0.03 µg/mL
- MIC without PB/MIC + PB ([6]; +[…] PB, 2nd experiment): ≥128
- MIC without PB/MIC + PB ([6]; ratio, PB […], 1st experiment): ≥128
- MIC ([6]; J2, A. baumannii J2, +[…] PB, 2nd experiment, read-out: MIC): ≤ 0.03 µg/mL
- MIC ([6]; J2, read-out: MIC +[…] PB, A. baumannii J2, +[…] polymyxin B, 1st experiment): ≤ 0.03 µg/mL
- MIC without PB/MIC + PB [7]: 64
- MIC without PB/MIC + PB [8]: 16
- MIC without PB/MIC + PB ([9]; +0.06 μg/ml PB, 2nd experiment): ≥4
- MIC without PB/MIC + PB [9, 24]: ≥1
- MIC +0.06 μg/ml PB ([10]; +0.06 μg/ml polymyxin B): ≤0.03 µg/mL
- MIC ([10]; Acinetobacter baumannii, 24 h, without polymyxin B, read-out: MIC without PB): 16 µg/mL (≈ 43.2 µM)
- MIC without PB/MIC + PB ([10]; ratio, PB 0.06 μg/ml): ≥512
- MIC range with PB (0.25x MIC) Oct. 1, 2008 n = 8 ([11]; 1st experiment, […] polymyxin B, ATCC 19606, A329, A390 and A473 not taken): ≤0.03 to 1 µg/mL
- MIC range with PB (0.25x MIC) Oct. 14, 2008 n = 11 ([11]; 2nd experiment, 0.06 μg/ml polymyxin B, all strains except the ATCC strain): ≤0.03 to 0.5 µg/mL
- MIC without PB/MIC + PB ([12]; A. baumannii NCTC 13301): ≥512
- MIC ([12]; Acinetobacter baumannii, NCTC13301, A. baumannii NCTC 13301, read-out: MIC): ≤ 0.03 µg/mL
- MBC ([13]; J2, A. baumannii J2, +[…] PB, 2nd experiment, read-out: MBC): ≤ 0.03 µg/mL
- MBC ([13]; J2, read-out: MBC +[…] PB, A. baumannii J2, +[…] polymyxin B, 1st experiment): ≤ 0.03 µg/mL
- MIC [14, 25]: 0.06 µg/mL (≈ 0.162 µM)
- MIC without PB/MIC + PB [14, 25]: 256
- MIC ([14]; Acinetobacter baumannii, A14, A. baumannii A14, without PB, read-out: MIC): 16 µg/mL (≈ 43.2 µM)
- MBC ([15]; A472, A. baumannii A472, +[…] PB, 2nd experiment, read-out: MBC): ≤ 0.03 µg/mL
- MBC ([15]; A472, read-out: MBC +[…] PB, A. baumannii A472, +[…] polymyxin B, 1st experiment): ≤ 0.03 µg/mL
- MIC without PB/MIC + PB ([16]; +[…] PB, 2nd experiment): ≥128
- MIC without PB/MIC + PB ([16]; ratio, PB […], 1st experiment): ≥64
- MIC ([16]; A489, A. baumannii A489, +[…] PB, 2nd experiment, read-out: MIC): ≤ 0.03 µg/mL
- MIC ([16]; A489, read-out: MIC +[…] PB, A. baumannii A489, +[…] polymyxin B, 1st experiment): ≤ 0.03 µg/mL
- MBC ([17]; Acinetobacter spp. H064200250 (OXA51), +[…] PB, 2nd experiment, read-out: MBC): 0.06 µg/mL (≈ 0.162 µM)
- MBC ([17]; read-out: MBC +[…] PB, Acinetobacter spp. H064200250, +[…] polymyxin B, 1st experiment): ≤ 0.03 µg/mL
- MIC without PB/MIC + PB ([18]; A. baumannii A390): ≥512
- MIC ([18]; Acinetobacter baumannii, A390, A. baumannii A390, read-out: MIC): ≤ 0.03 µg/mL
- MBC [19]: 0.5 µg/mL (≈ 1.35 µM)
- MBC ([20]; A489, A. baumannii A489, +[…] PB, 2nd experiment, read-out: MBC): ≤ 0.03 µg/mL
- MBC ([20]; A489, read-out: MBC +[…] PB, A. baumannii A489, +[…] polymyxin B, 1st experiment): ≤ 0.03 µg/mL
- MIC without PB/MIC + PB ([21]; A. baumannii NCTC 13301, ratio, PB […], 1st experiment): ≥512
- MIC ([21]; Acinetobacter baumannii, NCTC13301, read-out: MIC +[…] PB): ≤ 0.03 µg/mL
- MIC without PB/MIC + PB ([22]; +0.06 μg/ml PB, 2nd experiment): ≥32
- MIC without PB/MIC + PB [22, 24]: ≥16
- MIC ([22]; A387, A. baumannii A387, +0.06 μg/ml PB, 2nd experiment, read-out: MIC): ≤ 0.03 µg/mL
- MIC ([22]; A387, read-out: MIC +0.06 μg/ml PB, A. baumannii A387, +0.06 μg/ml polymyxin B, 1st experiment): ≤ 0.03 µg/mL
- MBC +0.06 μg/ml PB [23]: ≤0.03 µg/mL
